Assay: method code SF-HPLC, from DOI: 10.1016/0378-5173(85)90030-4

SMILES | logP
CCCC(=O)OCn1cc2c(=O)[nH]cnc2n1 | 0.33
CC(C)(C)C(=O)OCn1cc2c(=O)[nH]cnc2n1 | 0.79
CCN(CC)C(=O)CCC(=O)OCn1ncc2c(=O)[nH]cnc21 | -0.22
CC(C)(C)C(=O)OCn1ncc2c(=O)[nH]cnc21 | 1.07
CC(C)(C)C(=O)OCn1cc2c(=O)n(COC(=O)C(C)(C)C)cnc2n1 | 2.34
CCCC(=O)OCn1cnc2c(cnn2COC(=O)CCC)c1=O | 1.82
CCCC(=O)OCn1ncc2c(=O)[nH]cnc21 | 0.6
CC(C)(C)C(=O)OCn1cnc2c(cnn2COC(=O)C(C)(C)C)c1=O | 2.5

More lines, now with the values ahead:

logP | SMILES
-0.35 | CC(=O)OCn1ncc2c(=O)[nH]cnc21
1.5 | O=C(OCn1ncc2c(=O)[nH]cnc21)c1ccccc1
0.27 | O=C(OCn1ncc2c(=O)[nH]cnc21)c1cccnc1
0.21 | CCOC(=O)OCn1ncc2c(=O)[nH]cnc21

From the SangsterLogP compilation
